8 molecules from patent publication US20210040089A1, “KRAS MUTANT PROTEIN INHIBITORS” (Jacobio Pharmaceuticals Co., Ltd., priority 2019, published 2021) can be followed below.

A value given as a limit tells only on which side of the number the result lay.

For experiment [1], the system named is NCI-H1373 cells. Put plainly: NCI-H1373 xenograft model. The class given is in vivo, female BALB/c mice. Particulars: for TGI % / Tumor volume at the end (Day 22): Day 22. As for the experimental part:
4. NCI-H1373 xenograft model
NCI-H1373 cells (5.0E+06 cells) were injected subcutaneously into the right flank of female BALB/c mice (6-8 weeks) in a mixture with Matrigel (BD Bioscience). Mice were monitored daily and caliper measurements began when tumors became visible. Tumor volume was calculated by measuring two perpendicular diameters using the following formula: (L*w^2)/2 in which L and w refer to the length and width tumor diameter, respectively. When the average tumor volume reached 150-200 mm^3, mice were grouped (n=6/group) and treated with compounds. Tumor volume and mice weight was measured twice a week during treatment (˜3 weeks). Tumor growth inhibition rates were calculated by TGI %=(1−(Vt−Vt0)/(Vc−Vc0))*100%, where Vc, Vt are the mean tumor volume of control and treated groups at the end of the study, and Vc0 and Vt0 are the mean tumor volume of control and treated groups at the start.

The test system of experiment [2] is Phospho-ERK1/2(THR202/TYR204) in NCI-H358 cells express KRAS G12C. Put plainly: Phospho-ERK1/2(THR202/TYR204) HTRF assay. It counts as cell-based. Particulars: Homo sapiens; NCI-H358, 2 hours incubation; read-out: p-ERK inhibition in NCI-H358 IC50. The procedure, abridged:
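Compounds applied to attached cells for 2 h at 37 °C in RPMI 1640 with 0.1% FBS. Lysate phospho-ERK1/2 detected by HTRF after 4 h antibody incubation at 25 °C; IC50 from 4-parameter logistic fit.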
On the technique in general: TR-FRET usually uses a lanthanide donor and a delayed reading to cut background.

The test system of experiment [3] is NCI-H358 cells express KRAS G12C. Briefly: Cell growth inhibition assay (CCK-8). The class given is cell-based. Particulars: Homo sapiens, 144 h; NCI-H358, 6 days incubation. The procedure, abridged:
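Antiproliferative read-out: KRAS G12C-mutant NCI-H358 lung cancer cells (3000/well) exposed to compounds in RPMI 1640 with 10% FBS for 6 days at 37°C. Viability by CCK-8 (OD450) after 1.5-2 h; IC50 from 4-parameter logistic fit.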

In experiment [4] the target is T1, KRAS G12C (Homo sapiens, UniProt P01116, G12C).
T1 construct: HIS-KRAS (G12C, aa 2-185, Sino biological); purchased Sino biological
Briefly: SOS1 catalyzed nucleotide exchange assay (TR-FRET). The class given is biochemical. Particulars: GDP-loaded HIS-KRAS(G12C), 1 hour pre-incubation with compound. The procedure, abridged:
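EDTA-stripped, GDP-loaded His-KRAS G12C (aa 2-185; 3 nM final) preincubated 1 h with compound, then SOS1 ExD (aa 564-1049; 2 μM) and BODIPY-FL GTP (80 nM) added for 4 h at 25 °C. TR-FRET via anti-His Tb cryptate (515/486 nm ratio); IC50 from 4-parameter logistic fit.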

T1 sequence (P01116 2-185 isoform P01116-2 G12C): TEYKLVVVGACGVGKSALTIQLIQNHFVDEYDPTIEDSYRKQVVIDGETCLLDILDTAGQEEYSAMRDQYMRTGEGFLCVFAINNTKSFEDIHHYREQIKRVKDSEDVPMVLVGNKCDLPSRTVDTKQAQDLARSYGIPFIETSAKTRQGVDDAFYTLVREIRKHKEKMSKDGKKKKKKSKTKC

By IC50 is commonly meant the concentration that inhibits the measured activity by half. `C=CC(=O)N1CCN(c2nc(OCC3(CN4CCCC4)CC3)nc3c2CCN(c2cccc4cccc(C)c24)C3)CC1CC#N` (centres unmarked) [Compound 56, 2-(1-acryloyl-4-(7-(8-methylnaphthalen-1-yl)-2-((1-(pyrrolidin-1-ylmethyl)cyclopropyl)methoxy)-5,6,7,8-tetrahydropyrido[3,4-d]pyrimidin-4-yl)piperazin-2-yl)acetonitrile]: in experiment [1] (Table 2, 10 mg/kg, BID), the TGI % is on record as 102.5%, the “Tumor volume at the end (Day 22)” value is listed as 148 mm^3 and the “Tumor volume at the start” value was determined as 191 mm^3. Further, the IC50 in experiment [2] stood at 38.2 nM. The IC50 in experiment [3] is 22.4 nM. In experiment [4], the half-maximal inhibitory concentration (IC50) was 3.19 nM.

Take `C=CC(=O)N1CCN(c2nc(OCC3(CN4CCCC4)CC3)nc3c2CCN(c2cccc4cccc(C)c24)C3)C[C@@H]1CC#N` [Compound 67, (S)-2-(1-acryloyl-4-(7-(8-methylnaphthalen-1-yl)-2-((1-(pyrrolidin-1-ylmethyl)cyclopropyl)methoxy)-5,6,7,8-tetrahydropyrido[3,4-d]pyrimidin-4-yl)piperazin-2-yl)acetonitrile]: in experiment [1] (Table 3, 10 mg/kg, QD), the TGI % was determined as 106.1%, the “Tumor volume at the end (Day 22)” value turned out to be 114 mm^3 and the “Tumor volume at the start” value is reported as 188 mm^3. Further, in experiment [2], the concentration for half-maximal inhibition (IC50) was 22.4 nM. Moreover, the IC50 in experiment [3] was found to be 20.4 nM. The IC50 in experiment [4] is 1.84 nM.

For the molecule `Cc1cccc2cccc(N3CCc4c(nc(OCC5(CN(C)C)CC5)nc4N4CCN(C(=O)/C=C/CF)[C@@H](CC#N)C4)C3)c12` [Compound 68, (S,E)-2-(4-(2-((1-((dimethylamino)methyl)cyclopropyl)methoxy)-7-(8-methylnaphthalen-1-yl)-5,6,7,8-tetrahydropyrido[3,4-d]pyrimidin-4-yl)-1-(4-fluorobut-2-enoyl)piperazin-2-yl)acetonitrile], in experiment [1] (Table 2, 10 mg/kg, BID), the TGI % is reported as 82.6%, the “Tumor volume at the end (Day 22)” value worked out at 490 mm^3 and the “Tumor volume at the start” value stood at 191 mm^3. The half-inhibitory concentration (IC50) in experiment [2] was 69.2 nM. The same molecule had an IC50 in experiment [3] of 51.5 nM. Also, in experiment [4], the IC50 was 1.6 nM.

Consider `C=C(F)C(=O)N1CCN(c2nc(OCC3(CN(C)C)CC3)nc3c2CCN(c2cccc4cccc(C)c24)C3)C[C@@H]1CC#N` [Compound 83, (S)-2-(4-(2-((1-((dimethylamino)methyl)cyclopropyl)methoxy)-7-(8-methylnaphthalen-1-yl)-5,6,7,8-tetrahydropyrido[3,4-d]pyrimidin-4-yl)-1-(2-fluoroacryloyl)piperazin-2-yl)acetonitrile], for which, in experiment [1] (Table 2, 10 mg/kg, BID), the TGI % is 89.4%, the “Tumor volume at the end (Day 22)” value was determined as 374 mm^3 and the “Tumor volume at the start” value was 191 mm^3. Besides, in experiment [2], the IC50 was determined as 190 nM. The same molecule registered an IC50 in experiment [3] of 116 nM. The IC50 in experiment [4] was 3.9 nM.

With `CN(C)CC1(COc2nc3c(c(N4CCN(C(=O)/C=C/CF)[C@@H](CC#N)C4)n2)CCN(c2cccc4cccc(Cl)c24)C3)CC1` [Compound 84, (S,E)-2-(4-(7-(8-chloronaphthalen-1-yl)-2-((1-((dimethylamino)methyl)cyclopropyl)methoxy)-5,6,7,8-tetrahydropyrido[3,4-d]pyrimidin-4-yl)-1-(4-fluorobut-2-enoyl)piperazin-2-yl)acetonitrile], the IC50 was determined as 80.2 nM in experiment [2], 24.3 nM in experiment [3] and 1.58 nM in experiment [4].

Turning to `Cc1cccc2cccc(N3CCc4c(nc(OCC5(CN(C)C)CC5)nc4N4CCN(C(=O)/C=C/CN(C)C)C(CC#N)C4)C3)c12` (centres unmarked) [Compound 85, (E)-2-(1-(4-(dimethylamino)but-2-enoyl)-4-(2-((1-((dimethylamino)methyl)cyclopropyl)methoxy)-7-(8-methylnaphthalen-1-yl)-5,6,7,8-tetrahydropyrido[3,4-d]pyrimidin-4-yl)piperazin-2-yl)acetonitrile], the IC50 is 153 nM in experiment [2], 132 nM in experiment [3] and 2.86 nM in experiment [4].

On to `Cc1cccc2cccc(N3CCc4c(nc(OCC5(CN6CCCC6)CC5)nc4N4CCN(C(=O)/C=C/CN(C)C)C(CC#N)C4)C3)c12` (centres unmarked) [Compound 86, (E)-2-(1-(4-(dimethylamino)but-2-enoyl)-4-(7-(8-methylnaphthalen-1-yl)-2-((1-(pyrrolidin-1-ylmethyl)cyclopropyl)methoxy)-5,6,7,8-tetrahydropyrido[3,4-d]pyrimidin-4-yl)piperazin-2-yl)acetonitrile], for which the figures for the IC50 in experiment [2], in experiment [3] and in experiment [4] were 131 nM, 103 nM and above 500 nM, respectively.

As to `C=C(F)C(=O)N1CCN(c2nc(OCC3CCCN3C)nc3c2CCN(c2cccc4cccc(Cl)c24)C3)C[C@@H]1CC#N` (some centres unmarked) [MRTX 849, MRTX849, reference compound], in experiment [1] (Table 2, 10 mg/kg, QD), the TGI % came out at 79.0% and the “Tumor volume at the end (Day 22)” value is listed as 553 mm^3. Further, in experiment [1] (Table 3, 10 mg/kg, QD), the TGI % is 86.3%, the “Tumor volume at the end (Day 22)” value is recorded as 355 mm^3 and the “Tumor volume at the start” value came to 188 mm^3.
